Patent publication US8148385B2, “Substituted [1,2,3] triazolo[4,5-d]pyrimidine derivatives as ADP P2Y12 receptor antagonists” (Janssen Pharmaceutica N.V., priority 2006, dated 2012)

Legend:
[1] = molecular target: T1, P2Y12 receptor (Homo sapiens, UniProt Q9H244); test: Whole cell receptor binding assay for 2-MeS[3H]-ADP; details: whole HEK 293 cells transfected with P2Y12; 2-MeS[3H]-ADP 3 nM; 30 min at 37° C.; read-out: Inhibition of Receptor Binding IC50
T1 construct: expressed in transfected cells
Method: A whole cell-binding assay for 2-MeS [^3H]-ADP (Custom synthesized by Amersham BioScience, Piscataway, N.J.) to the P2Y12 receptor was performed.
A P2Y12 cDNA containing hygromycin resistant gene was transfected in HEK 293 cells. A stable cell line was obtained by a cloning selection method. The cells were cultured in DMEM supplemented with 10% FBS and 1× of p/s.
On the day of the assay, the cells were harvested and resuspended in 0.25% BSA-DMEM and adjusted to a cell concentration of 1.6×10^6/ml. […] The reaction was then incubated for 30 min at 37° C. and stopped by adding cold DMEM. […] The plates were dyed in a 37° C. oven for 1-2 hours and 50 μl of MicroScint-20 (PerkinElmer) was added to each well. The radioactivity was measured using a TOPCOUNT beta counter (Packard).

[2] = molecular target: T2, ADP P2Y12 (Homo sapiens, UniProt Q9H244); test: FLIPR calcium assay transducing Gi-coupled signaling to the Gq pathway (inhibition of calcium mobilization); assay type: cell-based; details: HEK 293 cells co-transfected with P2Y12 and Gqi5, ADP at EC60-70 dose
T2 construct: expressed in transfected cells
Excerpt: A FLIPR Calcium Assay Transducing Gi-Coupled Signaling to the Gq Pathway
The ADP P2Y12 subtype is a Gi coupled GPCR, which mediates inhibition of adenylate cyclase leading to decreased cAMP while Gq proteins primarily activate phospholipase C, which stimulates inositol-1,4,5-triphosphate (IP3) formation and a subsequent increase in intracellular Ca^2+ concentration, which can be easily measured by FLIPR. Prior to the development of a method to convert a Gi coupled GPCR signaling to a Gq coupled GPCR signaling, a significant barrier existed for the functional testing and screening of Gi coupled GPCRs. One popular method, GTPγS migration, is slow, produces a small signal and generates radioactive waste. The discovery that a small switch in the amino acid sequence in the Gi protein could convert it to a protein mediating a Gq coupled response has led to the development of robust, high throughput assays for this valuable receptor subtype.
The FLIPR-based HTS assay transducing the Gi signaling to the Gq pathway is described below.
pcDNA3hygroP2Y12 containing a hygromycin resistance gene and pLEC1-Gqi5-HA containing a neomycin resistance gene (licensed from Molecular Devices, Sunnyvale, Calif.) were co-transfected into Human embryonic kidney (HEK) 293 cells with SuperFect (Qiagen, Valencia, Calif.). Cell clones were selected in the presence of 600 μg/ml hygromycin B (Life Technologies, Carlsbad, Calif.) and 1 mg/ml of G418 (Mediatech, Herndon, Va.). Drug resistant colonies were picked and screened by FLIPR and the gene expression was further confirmed by RT-PCR. Positive clones were maintained in growth medium (DMEM supplemented with 10% FBS, 1×p/s) containing 400 μg/ml of G418 and 200 μg/ml of hygromycin.
The day before the assay, cells are seeded in clear, flat-bottom black-wall, tissue culture treated polystyrene 96- or 384-well plates and incubated at 37° C., 5% CO2. 50 μl of complete dye loading solution (FLIPR Calcium Assay Kit, Molecular Devices) was added to each well containing 100 μl of culture media. The cells were incubated for at least 30 min at 37° C., in 5% CO2 before initiating the assay on the FLIPR. The agonist effect of ADP was tested and EC50 was determined prior to compound testing. The EC60-70 dose was used.
The antagonist compounds were prepared at 4× and the agonists were diluted at 5× the concentration desired in the test wells, and then aliquoted into the sample plates. The sample plates and the cell plate were placed in the FLIPR assay chamber. A first addition (50 μl) was made at the start of reading and a second addition (50 μl) was made after 5 min of reading. Raw fluorescence data was exported for each well and tabulated versus time within an ASCII file. Data was then imported into Excel and the peak response over the basal level was determined. The percent inhibition for each compound was calculated by the change in fluorescent density as a % inhibition of the control ADP response to obtain an IC50, as shown in Table 1 (wherein N/A means Not Applicable).

[3] = test system: washed platelets; test: In vitro platelet aggregation; assay type: cell-based; details: Homo sapiens, washed platelets from healthy volunteers, agonist (ADP) at 60-70% aggregation, % inhibition of control ADP response
Method: Platelet aggregation studies were performed according to a published method (Bednar, B., Condra, C., Gould, R. J., and Connolly, T. M., Throm. Res., 77:453-463 (1995). Platelet-rich plasma (PRP) concentrates prepared from healthy volunteers who were aspirin free for at least 7 days by venipuncture using ACD-A as anticoagulant was purchased from Biological Specialties, Inc. (Colmar, Pa.). PRP was centrifuged at 730 g for 15 min. The platelet pellet was washed twice in CGS buffer (13 mM sodium citrate, 30 mM glucose, 120 mM NaCl, pH 6.5) containing 1 μ/ml apyrase (grade V, Sigma-Aldrich, St. Louis, Mo.), 1 mM EGTA, and resuspended in Tyrode's buffer (140 mM NaCl, 2.7 mM KCl, 12 mM NaHCO3, 0.76 mM Na2HPO4, 5.5 mM dextrose, 5.0 mM Hepes, 0.2% BSA, pH 7.4). The platelets were diluted to 3×10^8 platelets/ml and kept >45 min at 37° C. before use. 105 μl of washed platelets, 2 mM CaCl2 and […] of fibrinogen were added to a 96-well microliter plate.
Platelet aggregation was initiated by the addition of serial concentrations of ADP (BioData Corp. Horsham, Pa.). Buffer was added to one set of control wells. The assay plate was stirred constantly and intermittently placed in a microplate reader (Softmax, Molecular Devices, Menlo Park, Calif.) to read optical density (650 nm) at 0 and 5 minutes after the addition of the compound solutions. Aggregation was calculated as the decrease in optical density between the time 0- and 5-min measurements and expressed as % of aggregation. For the inhibition assay, platelet aggregation was conducted as described above except for compound additions. Test compounds were prepared in 100% DMSO and stored.
On the day of the assay, test compounds were diluted in the buffer containing 3% of DMSO as a 10× working solution. 15 μl of compound solutions were added to 105 μl of platelets 5 min prior to the addition of CaCl2 and fibrinogen.

T2 sequence (Q9H244 whole entry): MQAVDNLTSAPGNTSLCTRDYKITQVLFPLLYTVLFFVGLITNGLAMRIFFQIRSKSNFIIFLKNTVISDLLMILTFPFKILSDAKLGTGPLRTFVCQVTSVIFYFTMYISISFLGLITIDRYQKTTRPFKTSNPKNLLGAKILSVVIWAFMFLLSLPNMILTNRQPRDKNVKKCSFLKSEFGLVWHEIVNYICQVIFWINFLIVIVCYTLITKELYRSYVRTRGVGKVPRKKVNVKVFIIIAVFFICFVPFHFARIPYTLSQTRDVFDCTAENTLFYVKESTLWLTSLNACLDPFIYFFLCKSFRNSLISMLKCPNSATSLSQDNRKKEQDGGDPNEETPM
T1 sequence (Q9H244 whole entry): as above

Compound	IC50 [1] [nM]	IC50 [2] [nM]	IC50 [3] [nM]
CCCSc1nc(N[C@@H]2C[C@H]2c2ccccc2)c2nnn([C@@H]3C=C[C@H](O)[C@@H](O)[C@H]3O)c2n1 (mixture of isomers) [Cpd 5, (1S,2R,3S,6R)-6-{7-[(1RS,2SR)-2-phenyl-cyclopropylamino]-5-propylsulfanyl-[1,2,3]triazolo[4,5-d]pyrimidin-3-yl}-cyclohex-4-ene-1,2,3-triol]	2100	745	5050
CCCSc1nc(N[C@@H]2C[C@H]2c2ccccc2)c2nnn([C@@H]3C=C[C@H](OCC(=O)O)[C@@H](O)[C@H]3O)c2n1 (mixture of isomers) [Cpd 11, [(1S,4R,5S,6S)-5,6-dihydroxy-4-{7-[(1RS,2SR)-2-phenyl-cyclopropylamino]-5-propylsulfanyl-[1,2,3]triazolo[4,5-d]pyrimidin-3-yl}-cyclohex-2-enyloxy]-acetic acid]	1490	2200	2910
CCCSc1nc(N[C@@H]2C[C@H]2c2ccccc2)c2nnn([C@@H]3CC[C@H](O)[C@@H](O)[C@H]3O)c2n1 (mixture of isomers) [Cpd 14, (1S,2R,3S,4R)-4-{7-[(1RS,2SR)-2-phenyl-cyclopropylamino]-5-propylsulfanyl-[1,2,3]triazolo[4,5-d]pyrimidin-3-yl}-cyclohexane-1,2,3-triol]	1350	456	3100
CCCSc1nc(N[C@@H]2C[C@H]2c2ccccc2)c2nnn([C@H]3[C@H](O)[C@H](O)[C@@H](O)[C@H](O)[C@@H]3O)c2n1 (racemic) [Cpd 9, (1R,2R,4S,5S)-6-{7-[(1RS,2SR)-phenyl-cyclopropylamino]-5-propylsulfanyl-[1,2,3]triazolo[4,5-d]pyrimidin-3-yl}-cyclohexane-1,2,3,4,5-pentaol]	5040	2960	15000
CCCCNc1nc(SCCC)nc2c1nnn2[C@@H]1C=C[C@H](O)[C@@H](O)[C@H]1O [Cpd 1, (1S,2R,3S,6R)-6-(7-butylamino-5-propylsulfanyl-[1,2,3]triazolo[4,5-d]pyrimidin-3-yl)-cyclohex-4-ene-1,2,3-triol]	9030	2120	15200
CCCSc1nc(NCC2CCCN2CC)c2nnn([C@@H]3CC[C@H](O)[C@@H](O)[C@H]3O)c2n1 (stereo partly drawn) [Cpd 21, (1S,2R,3S,4R)-4-{7-[(1-ethyl-pyrrolidin-2-ylmethyl)-amino]-5-propylsulfanyl-[1,2,3]triazolo[4,5-d]pyrimidin-3-yl}-cyclohexane-1,2,3-triol]		> 30000	> 30000
